{"source": "patent US20250255867A1", "about": "(Kadmon Corporation, LLC, priority 2022, published 2025)", "conditions": "Cohort 2 200 mg BID"}
{"smiles": "CC(C)NC(=O)COc1cccc(-c2nc(Nc3ccc4[nH]ncc4c3)c3ccccc3n2)c1", "note": "[Belumosudil, 2-{3-[4-(1H-indazol-5-ylamino)-2-quinazolinyl]phenoxy}-N-(propan-2-yl) acetamide]", "values": [{"measurement": "SAE Cardiac arrest, # events", "value": 0}, {"measurement": "SAE Cardiac arrest, affected/at risk", "value": "0/16"}, {"measurement": "SAE Cellulitis, # events", "value": 1}, {"measurement": "SAE Cellulitis, affected/at risk", "value": "1/16"}, {"measurement": "SAE Chronic graft versus host disease in skin, # events", "value": 1}, {"measurement": "SAE Chronic graft versus host disease in skin, affected/at risk", "value": "1/16"}, {"measurement": "SAE Citrobacter infection, # events", "value": 1}, {"measurement": "SAE Citrobacter infection, affected/at risk", "value": "1/16"}, {"measurement": "SAE Dyspnoea, # events", "value": 1}, {"measurement": "SAE Dyspnoea, affected/at risk", "value": "1/16"}, {"measurement": "SAE Embolism, # events", "value": 1}, {"measurement": "SAE Embolism, affected/at risk", "value": "1/16"}, {"measurement": "SAE Febrile neutropenia, # events", "value": 0}, {"measurement": "SAE Febrile neutropenia, affected/at risk", "value": "0/16"}, {"measurement": "SAE Graft versus host disease in lung, # events", "value": 0}, {"measurement": "SAE Graft versus host disease in lung, affected/at risk", "value": "0/16"}, {"measurement": "SAE Hypoxia, # events", "value": 0}, {"measurement": "SAE Hypoxia, affected/at risk", "value": "0/16"}, {"measurement": "SAE Influenza A virus test positive, # events", "value": 0}, {"measurement": "SAE Influenza A virus test positive, affected/at risk", "value": "0/16"}, {"measurement": "SAE Influenza like illness, # events", "value": 0}, {"measurement": "SAE Influenza like illness, affected/at risk", "value": "0/16"}, {"measurement": "SAE Lacunar infarction, # events", "value": 1}, {"measurement": "SAE Lacunar infarction, affected/at risk", "value": "1/16"}, {"measurement": "SAE Leukaemia recurrent, # events", "value": 0}, {"measurement": "SAE Leukaemia recurrent, affected/at risk", "value": "0/16"}, {"measurement": "SAE Lipomatosis, # events", "value": 0}, {"measurement": "SAE Lipomatosis, affected/at risk", "value": "0/16"}, {"measurement": "SAE Metastases to meninges, # events", "value": 0}, {"measurement": "SAE Metastases to meninges, affected/at risk", "value": "0/16"}, {"measurement": "SAE Muscular weakness, # events", "value": 1}, {"measurement": "SAE Muscular weakness, affected/at risk", "value": "1/16"}, {"measurement": "SAE Myelodysplastic syndrome, # events", "value": 0}, {"measurement": "SAE Myelodysplastic syndrome, affected/at risk", "value": "0/16"}, {"measurement": "SAE Non-cardiac chest pain, # events", "value": 2}, {"measurement": "SAE Non-cardiac chest pain, affected/at risk", "value": "1/16"}, {"measurement": "SAE Obliterative bronchiolitis, # events", "value": 0}, {"measurement": "SAE Obliterative bronchiolitis, affected/at risk", "value": "0/16"}, {"measurement": "SAE Pericardial effusion, # events", "value": 0}, {"measurement": "SAE Pericardial effusion, affected/at risk", "value": "0/16"}, {"measurement": "SAE Pleural effusion, # events", "value": 0}, {"measurement": "SAE Pleural effusion, affected/at risk", "value": "0/16"}, {"measurement": "SAE Pneumonia viral, # events", "value": 0}, {"measurement": "SAE Pneumonia viral, affected/at risk", "value": "0/16"}, {"measurement": "SAE Pneumonia, # events", "value": 1}, {"measurement": "SAE Pneumonia, affected/at risk", "value": "1/16"}, {"measurement": "SAE Pregnancy of partner, # events", "value": 0}, {"measurement": "SAE Pregnancy of partner, affected/at risk", "value": "0/16"}, {"measurement": "SAE Proteinuria, # events", "value": 0}, {"measurement": "SAE Proteinuria, affected/at risk", "value": "0/16"}, {"measurement": "SAE Respirovirus test positive, # events", "value": 1}, {"measurement": "SAE Respirovirus test positive, affected/at risk", "value": "1/16"}, {"measurement": "SAE Small intestinal obstruction, # events", "value": 0}, {"measurement": "SAE Small intestinal obstruction, affected/at risk", "value": "0/16"}, {"measurement": "SAE Stenotrophomonas infection, # events", "value": 1}, {"measurement": "SAE Stenotrophomonas infection, affected/at risk", "value": "1/16"}, {"measurement": "SAE Urinary retention, # events", "value": 0}, {"measurement": "SAE Urinary retention, affected/at risk", "value": "0/16"}, {"measurement": "SAE Urinary tract infection, # events", "value": 1}, {"measurement": "SAE Urinary tract infection, affected/at risk", "value": "1/16"}, {"measurement": "SAE Varicella zoster virus infection, # events", "value": 0}, {"measurement": "SAE Varicella zoster virus infection, affected/at risk", "value": "0/16"}, {"measurement": "SAE total, affected/at risk", "value": "6/16"}, {"measurement": "Sinus pain: # Events", "value": 0}, {"measurement": "Sinus pain: Affected/At Risk", "value": "0/16"}, {"measurement": "Sinus pain: Affected/At Risk (%)", "value": "(0%)"}, {"measurement": "Sinusitis: # Events", "value": 4}, {"measurement": "Sinusitis: Affected/At Risk", "value": "2/16"}, {"measurement": "Sinusitis: Affected/At Risk (%)", "value": "(12.5%)"}, {"measurement": "Skin abrasion: # Events", "value": 0}, {"measurement": "Skin abrasion: Affected/At Risk", "value": "0/16"}, {"measurement": "Skin abrasion: Affected/At Risk (%)", "value": "(0%)"}, {"measurement": "Skin lesion: # Events", "value": 1}, {"measurement": "Skin lesion: Affected/At Risk", "value": "1/16"}, {"measurement": "Skin lesion: Affected/At Risk (%)", "value": "(6.25%)"}, {"measurement": "Skin papilloma: # Events", "value": 0}, {"measurement": "Skin papilloma: Affected/At Risk", "value": "0/16"}, {"measurement": "Skin papilloma: Affected/At Risk (%)", "value": "(0%)"}, {"measurement": "Spinal compression fracture: # Events", "value": 0}, {"measurement": "Spinal compression fracture: Affected/At Risk", "value": "0/16"}, {"measurement": "Spinal compression fracture: Affected/At Risk (%)", "value": "(0%)"}, {"measurement": "Squamous cell carcinoma of skin: # Events", "value": 2}, {"measurement": "Squamous cell carcinoma of skin: Affected/At Risk", "value": "2/16"}, {"measurement": "Squamous cell carcinoma of skin: Affected/At Risk (%)", "value": "(12.5%)"}, {"measurement": "Stomatitis: # Events", "value": 1}, {"measurement": "Stomatitis: Affected/At Risk", "value": "1/16"}, {"measurement": "Stomatitis: Affected/At Risk (%)", "value": "(6.25%)"}, {"measurement": "Superior vena cava syndrome: # Events", "value": 2}, {"measurement": "Superior vena cava syndrome: Affected/At Risk", "value": "1/16"}, {"measurement": "Superior vena cava syndrome: Affected/At Risk (%)", "value": "(6.25%)"}, {"measurement": "Tachycardia: # Events", "value": 0}, {"measurement": "Tachycardia: Affected/At Risk", "value": "0/16"}, {"measurement": "Tachycardia: Affected/At Risk (%)", "value": "(0%)"}, {"measurement": "Tendonitis: # Events", "value": 1}, {"measurement": "Tendonitis: Affected/At Risk", "value": "1/16"}, {"measurement": "Tendonitis: Affected/At Risk (%)", "value": "(6.25%)"}, {"measurement": "Testicular pain: # Events", "value": 0}, {"measurement": "Testicular pain: Affected/At Risk", "value": "0/16"}, {"measurement": "Testicular pain: Affected/At Risk (%)", "value": "(0%)"}, {"measurement": "Testicular swelling: # Events", "value": 0}, {"measurement": "Testicular swelling: Affected/At Risk", "value": "0/16"}, {"measurement": "Testicular swelling: Affected/At Risk (%)", "value": "(0%)"}, {"measurement": "Thoracic spinal stenosis: # Events", "value": 0}, {"measurement": "Thoracic spinal stenosis: Affected/At Risk", "value": "0/16"}, {"measurement": "Thoracic spinal stenosis: Affected/At Risk (%)", "value": "(0%)"}, {"measurement": "Thrombocytopenia: # Events", "value": 1}, {"measurement": "Thrombocytopenia: Affected/At Risk", "value": "1/16"}, {"measurement": "Thrombocytopenia: Affected/At Risk (%)", "value": "(6.25%)"}, {"measurement": "Thrombocytosis: # Events", "value": 0}, {"measurement": "Thrombocytosis: Affected/At Risk", "value": "0/16"}, {"measurement": "Thrombocytosis: Affected/At Risk (%)", "value": "(0%)"}, {"measurement": "Tinea pedis: # Events", "value": 1}, {"measurement": "Tinea pedis: Affected/At Risk", "value": "1/16"}, {"measurement": "Tinea pedis: Affected/At Risk (%)", "value": "(6.25%)"}, {"measurement": "Tooth fracture: # Events", "value": 1}, {"measurement": "Tooth fracture: Affected/At Risk", "value": "1/16"}, {"measurement": "Tooth fracture: Affected/At Risk (%)", "value": "(6.25%)"}, {"measurement": "Total Other Adverse Events: Affected/At Risk", "value": "16/16"}, {"measurement": "Total Other Adverse Events: Affected/At Risk (%)", "value": "(100%)"}, {"measurement": "Transfusion reaction: # Events", "value": 0}, {"measurement": "Transfusion reaction: Affected/At Risk", "value": "0/16"}, {"measurement": "Transfusion reaction: Affected/At Risk (%)", "value": "(0%)"}, {"measurement": "Tremor: # Events", "value": 2}, {"measurement": "Tremor: Affected/At Risk", "value": "1/16"}, {"measurement": "Tremor: Affected/At Risk (%)", "value": "(6.25%)"}, {"measurement": "Type 2 diabetes mellitus: # Events", "value": 0}, {"measurement": "Type 2 diabetes mellitus: Affected/At Risk", "value": "0/16"}, {"measurement": "Type 2 diabetes mellitus: Affected/At Risk (%)", "value": "(0%)"}, {"measurement": "Ulcerative keratitis: # Events", "value": 1}, {"measurement": "Ulcerative keratitis: Affected/At Risk", "value": "1/16"}, {"measurement": "Ulcerative keratitis: Affected/At Risk (%)", "value": "(6.25%)"}, {"measurement": "Upper respiratory tract infection: # Events", "value": 13}, {"measurement": "Upper respiratory tract infection: Affected/At Risk", "value": "9/16"}, {"measurement": "Upper respiratory tract infection: Affected/At Risk (%)", "value": "(56.25%)"}, {"measurement": "Upper-airway cough syndrome: # Events", "value": 2}, {"measurement": "Upper-airway cough syndrome: Affected/At Risk", "value": "2/16"}, {"measurement": "Upper-airway cough syndrome: Affected/At Risk (%)", "value": "(12.5%)"}]}
